Reference: ChEMBL document CHEMBL6115034, “Pseudonatural Flavonols as Novel Copper Ionophores for NAFLD Intervention via Synergistic Copper Delivery and Flavonoid Activity” (J Med Chem, 2025)
Calls of active or inactive are those of the source. The calls are words filed in the database; no cut-off is given here.

What was measured:
HepG2 [1] = assay: Anti-NAFLD activity in palmitic acid human HepG2 NAFLD cell model assessed as cell viability at 0.1 to 0.5 uM compound administrated as copper complex measured at 24 hrs by MTT assay; type: functional, cell-based; settings: dose 0.1-0.5 µM
Hepatocyte [2] = assay: Cytotoxicity against mouse Hepatocyte assessed as cell viability at 0.1 to 5 uM measured at 24 hrs by MTT assay; type: toxicity, cell-based; settings: hepatocytes, dose 0.1-5 µM
Hepatocyte [3] = assay: Cytotoxicity against mouse Hepatocyte assessed as cell viability at 0.1 to 5 uM compound administrated as copper complex measured at 24 hrs by MTT assay; type: toxicity, cell-based; settings: hepatocytes, dose 0.1-5 µM
[4] = Induction of copper transporting activity in human HeLa cells assessed as fold increase in intracellular copper levels at 2 uM incubated for 4 hrs by ICP-MS analysis; type: functional
HepG2 [5] = assay: Cytotoxicity against human HepG2 cells assessed as cell viability at 0.1 to 5 uM compound administrated as copper complex measured at 24 hrs by MTT assay; type: functional, cell-based; settings: dose 0.1-5 µM
HepG2 [6] = assay: Anti-NAFLD activity in palmitic acid human HepG2 NAFLD cell model assessed as increase in ROS level at 5 uM compound administrated as copper complex measured at 24 hrs by DCFH-DA probe based flow cytometry analysis; type: functional
HepG2 [7] = assay: Cytotoxicity against human HepG2 cells assessed as cell viability at 0.1 to 5 uM measured at 24 hrs by MTT assay; type: functional, cell-based; settings: dose 0.1-5 µM

| Structure (SMILES) | Activity (HepG2 [1]) | Activity (Hepatocyte [2]) | Activity (Hepatocyte [3]) | fold change (FC) [4] | Activity (HepG2 [5]) | Activity (HepG2 [6]) | Activity (HepG2 [7]) |
| --- | --- | --- | --- | --- | --- | --- | --- |
| O=c1c(O)c(-c2ccc3c(Cl)ccc(O)c3n2)oc2ccccc12 | Active | Non-toxic | Non-toxic | ~5 | Active | Active | Active |
| COc1ccc2oc(-c3ccc4cccc(O)c4n3)c(O)c(=O)c2c1 | Active | Non-toxic | Non-toxic | ~5 | Active | Active | Active |
